Data reported in PMC10683025, “Discovery of a Hydroxylamine-Based Brain-Penetrant EGFR Inhibitor for Metastatic Non-Small-Cell Lung Cancer” (Journal of Medicinal Chemistry, 2023).
“And” between values parts separate entries of the source, which are not always exact repeats. Equal entries are not always repeated. “Also recorded” adds a separate entry of the source.

Columns and labels:
[1] = Metabolic stability in hepatocytes; type: in vitro ADME, cynomolgus monkey; settings: for Remaining Percentages: monkey hepatocytes
Description: Microsome stability was assessed in duplicate (n = 2) in the presence and absence of nicotinamide adenine dinucleotide phosphate (NADPH) with liver microsomes (0.5 mg/mL) from human (BD Gentest) and Sprague-Dawley rats (BD Gentest). Compounds were incubated in liver microsomes at 1 μM and samples (30 μL) were taken at 0.5, 15, 30, 45, and 60 min time points for analysis by LC-MS/MS. Hepatocyte stability was assessed in duplicate (n = 2) at a working cell density of 0.5 × 10^6 cells/mL with hepatocytes from human (BiolVT), Sprague-Dawley rat (BiolVT), cynomolgus monkey (RILD) or beagle dog (BiolVT). […] The in vitro half-life and intrinsic clearances were determined as previously described.[76]
In vitro half-life (in vitro t1/2) was determined from the slope value in [drawing 1] where k was determined by linear regression of the natural logarithm of the remaining percentage of the parent drug vs the incubation time curve.

CHO-K1 cells = assay: In vitro micronucleus test; type: cell-based, Chinese hamster; settings: ± rat liver S9; valid to 31 μM + S9 and 8 μM − S9
Description: Compound 9 was assessed for genotoxicity by Eurofins Panlabs using the in vitro micronucleus test in Chinese hamster ovary (CHO-K1) cells as previously described.[79] Compound 9 was incubated in a 96-well plate format at varying concentrations (8, 16, 31, 62, 125, 250, 500, and 1000 μM) for 4 h at 37 °C with metabolic activation by rat liver S9 and 24 h at 37 °C without metabolic activation by rat liver S9. High content analysis and fluorescence imaging were used to detect micronuclei and compared against positive controls (cyclophosphamide (ran at 7.2 μM) and mitomycin C (ran at 0.3 μM)). Significances of the positive counts between the treatment and control were determined by one-tailed t test with two-sample equal variance.

[2] = test system: luciferase-tagged HCC827 cells implanted into the brains; assay: Intracranial PDX model; type: in vivo, BALB/c nude mice; settings: 10 mg/kg PO b.i.d.
Description: Animal experiments were performed at Pharmaron, Inc. and animal use was approved by Pharmaron’s Institutional Animal Care and Use Committee (IACUC) in Pharmaron (Pharmaron IACUC, Protocol #PK-M-07182022, #PK-R-06012022, and #ON-CELL-XEN-06012022) following the guidance of AAALAC. Six- to eight-week-old male Sprague-Dawley rats (approximately 200–300 g) obtained from Si Bei Fu Laboratory Animal Technology Co., six- to eight-week-old male CD1 mice (approximately 20–30 g) obtained from Si Bei Fu Laboratory Animal Technology Co., and six- to eight-week-old female BALB/c nude mice (approximately 20–30 g) obtained from Si Bei Fu Laboratory Animal Technology Co., were used in the pharmacokinetic studies. Six- to eight-week-old female BALB/c nude mice (approximately 18–22 g) obtained from Beijing Anikeeper Biotech Co., Ltd. were used in the intracranial PDX study. Animals were housed at 20–25 °C with humidity ranging from 40 to 70% relative humidity, were exposed to 12 h light and dark cycles, and were supplied with food and water ab libitum.
HCC827 cells stably expressing luciferase (HCC827-luc) were injected intracranially. Briefly, 3 × 10^5 HCC827-luc tumor cells suspended in 2 μL of RPMI1640 medium were injected into the right forebrain of anesthetized mice (anesthetic: intramuscular injection of ZoletlTM 50 (Virbac S.A)). Mice were imaged biweekly using IVIS Lumina III (PerkinElmer). Images were acquired 10 min post intraperitoneal (IP) injection with 15 mg/mL (at 5 μL/g body weight) of D-luciferin in anesthetized mice (anesthetic: 1–2% isoflurane inhalation). On day 20 postcellular inoculation, mice were randomized into 2 treatment groups (n = 10 mice per group): (1) 1% methylcellulose as vehicle control and (2) 9 (10 mg/kg) (formulation: 1% methylcellulose), PO, b.i.d. (twice daily) dosing (12 h intervals) × 7 days for 21 days. Body weights of all mice were measured biweekly throughout the study and BW change, expressed in % was calculated using the following formula: [drawing 5] where BWDay X is the BW on a given day and BWDay 0 is BW on day 0 (initiation of treatment).

[3] = target: T1, ABL1(H396P)-phosphorylated (Homo sapiens, UniProt P00519, H396P); assay: KINOMEScan; type: binding; settings: read-out: Percent Control
T1 construct: purchased Eurofins DiscoverX
Description: (§1) Percent control was mapped onto the kinome tree using TREEspot.

ADCK3 = target: T2, ADCK3 (Homo sapiens, UniProt Q8NI60); assay: KINOMEScan; type: binding; settings: ADCK3, 1 µM; read-out: Percent Control
T2 construct: purchased Eurofins DiscoverX (KINOMEscan)
T2 sequence (Q8NI60 163-647): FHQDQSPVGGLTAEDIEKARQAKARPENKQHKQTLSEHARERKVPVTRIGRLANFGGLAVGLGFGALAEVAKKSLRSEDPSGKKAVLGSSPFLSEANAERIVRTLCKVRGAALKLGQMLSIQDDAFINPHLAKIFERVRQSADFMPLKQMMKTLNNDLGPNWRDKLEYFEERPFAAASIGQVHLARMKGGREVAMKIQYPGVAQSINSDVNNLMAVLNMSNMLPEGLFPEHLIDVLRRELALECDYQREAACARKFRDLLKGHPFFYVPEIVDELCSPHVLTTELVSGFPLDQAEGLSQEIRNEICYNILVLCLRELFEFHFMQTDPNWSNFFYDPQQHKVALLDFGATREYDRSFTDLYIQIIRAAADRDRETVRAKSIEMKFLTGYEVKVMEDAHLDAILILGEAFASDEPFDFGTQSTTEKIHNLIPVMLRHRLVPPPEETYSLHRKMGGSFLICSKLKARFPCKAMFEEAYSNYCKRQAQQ
Description: as §1

AKT2 = target: T3, AKT2 (Homo sapiens, UniProt P31751); assay: KINOMEScan; type: binding; settings: AKT2, 1 µM; read-out: Percent Control
T3 construct: purchased Eurofins DiscoverX (KINOMEscan)
T3 sequence (P31751 whole entry): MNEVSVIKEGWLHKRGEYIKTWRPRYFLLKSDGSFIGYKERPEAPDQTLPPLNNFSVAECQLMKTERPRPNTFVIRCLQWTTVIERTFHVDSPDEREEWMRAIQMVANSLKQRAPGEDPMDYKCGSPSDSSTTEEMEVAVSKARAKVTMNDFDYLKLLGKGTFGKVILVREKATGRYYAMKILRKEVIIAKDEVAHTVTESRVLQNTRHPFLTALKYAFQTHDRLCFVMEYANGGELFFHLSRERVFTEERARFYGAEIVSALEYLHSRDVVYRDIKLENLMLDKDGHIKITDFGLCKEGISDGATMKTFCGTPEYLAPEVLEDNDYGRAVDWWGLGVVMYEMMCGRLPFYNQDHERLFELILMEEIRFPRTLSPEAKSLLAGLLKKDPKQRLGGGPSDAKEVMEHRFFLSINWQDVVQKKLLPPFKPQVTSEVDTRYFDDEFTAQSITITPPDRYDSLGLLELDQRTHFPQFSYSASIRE
Description: as §1

ALK = target: T4, ALK (Homo sapiens, UniProt Q9UM73); assay: KINOMEScan; type: binding; settings: read-out: Percent Control
T4 construct: purchased Eurofins DiscoverX (KINOMEscan)
Description: as §1

WEE2 = target: T5, WEE2 (Homo sapiens, UniProt P0C1S8); assay: KINOMEScan; type: binding; settings: WEE2, 1 µM; read-out: Percent Control
T5 construct: purchased Eurofins DiscoverX
T5 sequence (P0C1S8 whole entry): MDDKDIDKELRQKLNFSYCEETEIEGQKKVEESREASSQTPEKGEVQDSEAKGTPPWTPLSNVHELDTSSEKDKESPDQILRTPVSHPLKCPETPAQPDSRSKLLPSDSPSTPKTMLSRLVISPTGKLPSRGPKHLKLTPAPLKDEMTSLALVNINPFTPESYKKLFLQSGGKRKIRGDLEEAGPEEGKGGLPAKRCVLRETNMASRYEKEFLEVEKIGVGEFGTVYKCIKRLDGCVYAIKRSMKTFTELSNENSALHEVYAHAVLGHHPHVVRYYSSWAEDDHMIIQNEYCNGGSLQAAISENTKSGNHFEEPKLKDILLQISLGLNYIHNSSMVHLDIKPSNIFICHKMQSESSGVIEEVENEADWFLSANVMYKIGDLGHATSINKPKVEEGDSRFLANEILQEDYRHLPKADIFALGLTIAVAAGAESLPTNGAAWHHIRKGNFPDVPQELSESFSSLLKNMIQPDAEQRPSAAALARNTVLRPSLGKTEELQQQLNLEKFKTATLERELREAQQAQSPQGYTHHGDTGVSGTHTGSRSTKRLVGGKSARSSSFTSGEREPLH
Description: as §1

WNK1 = target: T6, WNK1 (Homo sapiens, UniProt Q9H4A3); assay: KINOMEScan; type: binding; settings: WNK1, 1 µM; read-out: Percent Control
T6 construct: purchased Eurofins DiscoverX
Description: as §1

WNK2 = target: T7, WNK2 (Homo sapiens, UniProt Q9Y3S1); assay: KINOMEScan; type: binding; settings: WNK2, 1 µM; read-out: Percent Control
T7 construct: purchased Eurofins DiscoverX
Description: as §1

DRAK1 = target: T8, DRAK1 (Homo sapiens, UniProt Q9UEE5); assay: KINOMEScan; type: binding; settings: DRAK1, 1 μM; read-out: Percent Control
T8 construct: purchased Eurofins DiscoverX (contract assay)
T8 sequence (Q9UEE5 1-414): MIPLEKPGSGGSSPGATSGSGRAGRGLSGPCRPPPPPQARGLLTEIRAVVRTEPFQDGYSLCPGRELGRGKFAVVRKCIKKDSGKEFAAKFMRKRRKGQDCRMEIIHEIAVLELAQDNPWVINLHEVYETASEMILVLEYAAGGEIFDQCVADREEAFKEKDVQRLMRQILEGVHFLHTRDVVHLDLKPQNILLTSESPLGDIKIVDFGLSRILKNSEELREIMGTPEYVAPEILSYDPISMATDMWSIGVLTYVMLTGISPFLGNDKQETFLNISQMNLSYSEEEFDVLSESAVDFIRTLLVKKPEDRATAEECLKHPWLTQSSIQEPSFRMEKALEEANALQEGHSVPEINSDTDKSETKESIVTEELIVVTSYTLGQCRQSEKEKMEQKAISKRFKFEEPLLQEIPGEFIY
Description: as §1

PIKFYVE = target: T9, PIKFYVE (Homo sapiens, UniProt Q9Y2I7); assay: KINOMEScan; type: binding; settings: read-out: Percent Control
T9 construct: purchased Eurofins DiscoverX (KINOMEScan service)
T9 sequence (Q9Y2I7 whole entry): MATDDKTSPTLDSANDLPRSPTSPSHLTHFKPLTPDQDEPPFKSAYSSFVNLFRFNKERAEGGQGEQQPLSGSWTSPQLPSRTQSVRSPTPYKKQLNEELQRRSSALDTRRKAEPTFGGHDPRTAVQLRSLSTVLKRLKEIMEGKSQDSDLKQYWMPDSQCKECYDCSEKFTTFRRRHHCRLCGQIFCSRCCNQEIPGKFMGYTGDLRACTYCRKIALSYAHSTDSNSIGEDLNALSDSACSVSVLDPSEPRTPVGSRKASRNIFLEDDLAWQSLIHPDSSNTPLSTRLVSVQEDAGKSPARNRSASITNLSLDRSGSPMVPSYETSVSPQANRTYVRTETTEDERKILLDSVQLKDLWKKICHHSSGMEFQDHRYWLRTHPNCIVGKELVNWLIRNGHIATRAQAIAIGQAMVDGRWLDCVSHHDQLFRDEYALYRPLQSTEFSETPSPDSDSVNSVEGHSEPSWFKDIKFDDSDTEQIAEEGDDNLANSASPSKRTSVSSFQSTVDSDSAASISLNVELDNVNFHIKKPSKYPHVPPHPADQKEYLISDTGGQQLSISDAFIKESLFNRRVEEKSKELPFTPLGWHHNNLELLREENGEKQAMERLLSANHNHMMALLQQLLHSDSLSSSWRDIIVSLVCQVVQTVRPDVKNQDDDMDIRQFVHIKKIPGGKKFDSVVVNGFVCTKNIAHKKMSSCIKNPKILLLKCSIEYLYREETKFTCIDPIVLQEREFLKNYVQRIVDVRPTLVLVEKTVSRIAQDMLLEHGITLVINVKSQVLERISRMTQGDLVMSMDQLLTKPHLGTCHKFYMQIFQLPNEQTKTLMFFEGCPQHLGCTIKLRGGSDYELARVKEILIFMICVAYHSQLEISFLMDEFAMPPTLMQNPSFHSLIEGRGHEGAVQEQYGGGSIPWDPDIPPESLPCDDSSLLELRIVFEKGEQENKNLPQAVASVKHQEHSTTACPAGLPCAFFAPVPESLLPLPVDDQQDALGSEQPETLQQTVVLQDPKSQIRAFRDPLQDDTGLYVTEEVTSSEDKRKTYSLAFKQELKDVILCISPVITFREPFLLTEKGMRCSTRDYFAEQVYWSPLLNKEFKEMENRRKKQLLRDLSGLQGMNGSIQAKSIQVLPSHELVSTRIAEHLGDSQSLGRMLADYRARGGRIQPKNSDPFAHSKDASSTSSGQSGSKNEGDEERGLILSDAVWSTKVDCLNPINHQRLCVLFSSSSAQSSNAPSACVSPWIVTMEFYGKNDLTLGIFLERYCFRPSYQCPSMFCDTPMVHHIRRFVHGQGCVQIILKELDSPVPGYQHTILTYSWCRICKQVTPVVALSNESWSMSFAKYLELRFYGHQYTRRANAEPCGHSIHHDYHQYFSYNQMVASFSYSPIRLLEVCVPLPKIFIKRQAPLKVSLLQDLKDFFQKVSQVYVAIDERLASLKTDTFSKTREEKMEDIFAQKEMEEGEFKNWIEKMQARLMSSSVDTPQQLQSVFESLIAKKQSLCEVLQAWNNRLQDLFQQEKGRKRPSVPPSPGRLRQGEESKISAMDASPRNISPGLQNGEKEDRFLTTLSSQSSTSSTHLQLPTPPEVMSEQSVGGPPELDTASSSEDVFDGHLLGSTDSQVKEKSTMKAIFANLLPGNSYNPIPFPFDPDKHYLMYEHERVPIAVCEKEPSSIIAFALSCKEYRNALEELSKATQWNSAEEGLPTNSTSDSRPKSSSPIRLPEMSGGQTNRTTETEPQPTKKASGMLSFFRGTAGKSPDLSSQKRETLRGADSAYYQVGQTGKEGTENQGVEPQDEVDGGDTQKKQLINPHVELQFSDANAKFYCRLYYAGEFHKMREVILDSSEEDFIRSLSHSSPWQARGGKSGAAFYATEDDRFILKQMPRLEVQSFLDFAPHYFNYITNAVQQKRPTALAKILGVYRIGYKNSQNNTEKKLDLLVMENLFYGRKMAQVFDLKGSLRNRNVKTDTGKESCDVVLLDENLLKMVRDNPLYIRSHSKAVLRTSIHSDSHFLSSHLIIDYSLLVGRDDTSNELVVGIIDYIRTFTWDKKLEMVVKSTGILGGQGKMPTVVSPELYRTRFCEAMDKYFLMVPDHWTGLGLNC

CYP2D6 [4] = target: T10, CYP2D6 (Homo sapiens, UniProt P10635); assay: CYP2D6 time-dependent inhibition in primary human hepatocytes; settings: for Inhibition percentage(%) at Top conc.: human hepatocytes; for IC50 at 5 min: human, primary human hepatocytes, probe dextromethorphan (40 μM), O-demethylation
T10 sequence (P10635 whole entry): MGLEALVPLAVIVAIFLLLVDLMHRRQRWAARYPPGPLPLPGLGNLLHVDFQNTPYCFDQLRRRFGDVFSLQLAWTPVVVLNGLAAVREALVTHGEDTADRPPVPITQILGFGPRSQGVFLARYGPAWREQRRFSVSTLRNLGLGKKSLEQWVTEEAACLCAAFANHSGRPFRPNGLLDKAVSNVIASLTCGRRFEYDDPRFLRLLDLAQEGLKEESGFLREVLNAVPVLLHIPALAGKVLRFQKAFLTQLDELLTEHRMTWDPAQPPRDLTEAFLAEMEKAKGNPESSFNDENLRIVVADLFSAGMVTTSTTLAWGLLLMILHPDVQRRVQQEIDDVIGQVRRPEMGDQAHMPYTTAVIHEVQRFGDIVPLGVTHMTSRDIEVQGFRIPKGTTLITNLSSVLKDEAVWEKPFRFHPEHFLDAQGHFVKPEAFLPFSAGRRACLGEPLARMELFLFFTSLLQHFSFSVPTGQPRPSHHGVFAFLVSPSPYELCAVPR

CYP2D6 [5] = target: T10, CYP2D6; assay: CYP450 inhibition in human liver microsomes; type: in vitro ADME; set-up: tissue BD Gentest 452117; host or cells: pooled human liver microsomes, mixed gender
Description: The activities tested were CYP1A2-mediated phenacetin O-demethylation, CYP2C19-mediated (S)-mephenyotin 4′-hydroxylation, CYP2C9-mediated diclofenac 4′-hydroxylation, CYP2D6-mediated dextromethorphan O-demethylation, and CYP3A4-mediated midazolam 1′-hydroxylation. […] The reactions were initiated by adding NADPH (1 mM final concentration) after a 5 min preincubation, and the assay was run in duplicate (n = 2). Samples were analyzed by ultra-performance liquid chromatography tandem mass spectrometry (UPLC-MS/MS).

[6] = CYP2D6 IC50, human hepatocytes, pre-incubation 30 min

## COc1cc2ncnc(Nc3cccc(Cl)c3F)c2cc1OCCON1CCN(C)CC1 [Compound 9, N-(3-Chloro-2-fluorophenyl)-7-methoxy-6-(2-((4-methylpiperazin-1-yl)oxy)ethoxy)quinazolin-4-amine]
[1]; cynomolgus monkey, hepatocytes
  hepatocyte CLint at 2 h, 1 µM: 29 µL/min/1e6 cells
[1]; 15 min
  Remaining Percentages: 49.08%
[1]; 30 min
  Remaining Percentages: 30.35%
[1]; 60 min
  Remaining Percentages: 13.17%
[1]; 90 min
  Remaining Percentages: 4.27%
[1]; 120 min
  Remaining Percentages: BLOD
CHO-K1 cells
  In vitro micronucleus: neither mutagenic nor genotoxic potential; also recorded: Negative
[2]; 21-day treatment window
  mean body weight loss: ≤ 10%
[2]; 21 days
  adverse clinical events: no adverse clinical events were observed
[2]; 21 days, P = 0.0059
  intracranial tumor response relative to vehicle control (bioluminescence): profound tumor regression
[3]
  remaining binding at 1 µM: 6.6%
ADCK3
  remaining binding at 1 µM: 90%
AKT2
  remaining binding at 1 µM: 91%
ALK
  remaining binding at 1 µM: 89%
WEE2
  remaining binding at 1 µM: 100%
WNK1
  remaining binding at 1 µM: 100%
WNK2
  remaining binding at 1 µM: 94%
DRAK1
  remaining binding at 1 µM: 8.3%
PIKFYVE
  remaining binding at 1 µM: 1.6%
CYP2D6 [4]; [6]
  IC50: 4.75 µM
  IC50 at 5 min: 4.73 µM
CYP2D6 [4]; 0 min
  Inhibition percentage(%) at Top conc.: 63.41%
CYP2D6 [4]; 30 min
  Inhibition percentage(%) at Top conc.: 66.54%
CYP2D6 [4]; CYP2D6 IC50, human hepatocytes, pre-incubation 0 min
  IC50 at 5 min: 4.57 µM
CYP2D6 [5]
  IC50: 1.1 µM and 1.11 µM
